Laboratory results published in patent US20240277713A1 (Kadmon Corporation, LLC, priority 2022, published 2024).
Marks after values point to notes of the source that are not given here.

How the values were obtained:
[1] = test system: Sprague-Dawley rats; assay: Embryo-fetal developmental toxicity study in Sprague-Dawley rats (Example 3)
Protocol: For this study, a total of 140 time-mated female rats (approximately 8 to 10 weeks of age) were obtained from Charles River Laboratories, Raleigh, North Carolina, and acclimated from the time of arrival until the time of dosing on GD 6. During the acclimation period, the animals were observed twice daily with respect to general health and any signs of disease. All animals were given a detailed clinical examination and body weights were recorded prior to selection. […] Food consumption was collected during the acclimation period.
Animals received in-life and postmorten evaluations. […] All fetuses were given an external and visceral or skeletal examination.
Detailed clinical observations were made daily from GD 6 through 20 (4 hours±1 hour postdose on dosing days).
Food consumption for main study animals was measured and recorded on the corresponding body weight days and calculated for the same intervals.
The placentae were examined grossly.
The foci, if detected, were considered early resorptions, and data from this female were included in mean calculations

[2] = Pharmacokinetics in healthy subjects; assay type: in vivo, human
[3] = target: human serum albumin (Homo sapiens, UniProt P02768); assay: Binding to human serum albumin in vitro; assay type: in vitro ADME
[4] = test system: rat bone marrow; assay: in vivo rat bone marrow micronucleus assay
[5] = single oral dose of radiolabeled belumosudil

Sequence of human serum albumin (P02768 25-609): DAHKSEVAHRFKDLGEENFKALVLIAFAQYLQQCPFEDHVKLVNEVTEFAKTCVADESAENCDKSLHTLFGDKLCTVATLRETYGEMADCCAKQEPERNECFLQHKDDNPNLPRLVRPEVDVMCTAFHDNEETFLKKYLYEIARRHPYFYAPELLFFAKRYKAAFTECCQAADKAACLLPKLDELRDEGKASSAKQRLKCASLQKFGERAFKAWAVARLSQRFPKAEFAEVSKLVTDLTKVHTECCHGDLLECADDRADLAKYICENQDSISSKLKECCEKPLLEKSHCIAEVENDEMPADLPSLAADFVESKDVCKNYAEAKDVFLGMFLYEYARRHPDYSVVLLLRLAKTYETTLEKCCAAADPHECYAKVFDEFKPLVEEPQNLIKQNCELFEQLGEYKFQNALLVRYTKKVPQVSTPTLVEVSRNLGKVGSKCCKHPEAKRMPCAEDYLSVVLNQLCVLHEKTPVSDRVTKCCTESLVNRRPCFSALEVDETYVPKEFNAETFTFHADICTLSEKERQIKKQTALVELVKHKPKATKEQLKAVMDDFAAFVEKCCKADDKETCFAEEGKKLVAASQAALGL

CC(C)NC(=O)COc1cccc(-c2nc(Nc3ccc4[nH]ncc4c3)c3ccccc3n2)c1 [belumosudil, 2-{3-[4-(1H-indazol-5-ylamino)-2-quinazolinyl]phenoxy}-N-(propan-2-yl) acetamide]
Hair sparse, Forelimb/left, times observed/animals ([1]; 50 mg base/kg/day, GD 6-20): 10/2 | Hair sparse, Forelimb/right, times observed/animals ([1]; 50 mg base/kg/day, GD 6-20): 10/2 | Hair sparse, Hind limb/left, times observed/animals ([1]; 50 mg base/kg/day, GD 6-20): 0/0 | Hair sparse, Hind limb/right, times observed/animals ([1]; 50 mg base/kg/day, GD 6-20): 0/0 | Hair sparse, Lumbar region, times observed/animals ([1]; 50 mg base/kg/day, GD 6-20): 0/0 | Hair sparse, Thoracic region, times observed/animals ([1]; 50 mg base/kg/day, GD 6-20): 7/1 | Scabbed area, Face, times observed/animals ([1]; 50 mg base/kg/day, GD 6-20): 0/0 | Scabbed area, Forelimb/right, times observed/animals ([1]; 50 mg base/kg/day, GD 6-20): 0/0 | Scabbed area, Tail, times observed/animals ([1]; 50 mg base/kg/day, GD 6-20): 0/0 | Scabbed area, Thoracic region, times observed/animals ([1]; 50 mg base/kg/day, GD 6-20): 0/0 | Tail missing - portion, times observed/animals ([1]; 50 mg base/kg/day, GD 6-20): 0/0 | Fetal Body Weight Females, % Difference From Control ([1]; 150 mg base/kg/day): −7.7% | Fetal Body Weight Genders Combined, % Difference From Control ([1]; 150 mg base/kg/day): −7.3% | Fetal Body Weight Males, % Difference From Control ([1]; 150 mg base/kg/day): −8.0% | Maternal Body Weight Change GD 6-9 ([1]; 150 mg base/kg/day): −4.2^b g | Maternal Body Weight Change GD 6-18 ([1]; 150 mg base/kg/day): 55.4^b g | Maternal Body Weight Change GD 6-20 ([1]; 150 mg base/kg/day): 97.1^b g | Maternal Body Weight Change GD 18-20 ([1]; 150 mg base/kg/day): 41.8^b g | Maternal Body Weight GD 9 ([1]; 150 mg base/kg/day): 215.8^b g | Maternal Body Weight GD 12 ([1]; 150 mg base/kg/day): 232.1^b g | Maternal Body Weight GD 15 ([1]; 150 mg base/kg/day): 244.0^b g | Maternal Body Weight GD 18 ([1]; 150 mg base/kg/day): 275.3^b g | Maternal Body Weight GD 20 ([1]; 150 mg base/kg/day): 317.0^b g | Maternal Food Consumption GD 6-9 ([1]; 150 mg base/kg/day): 10.0^b | Maternal Food Consumption GD 6-18 ([1]; 150 mg base/kg/day): 15.4^b | Maternal Food Consumption GD 6-20 ([1]; 150 mg base/kg/day): 17.4^b | Maternal Food Consumption GD 18-20 ([1]; 150 mg base/kg/day): 29.4 | Mean Fetal Body Weight Females ([1]; 150 mg base/kg/day): 3.72 g | Mean Fetal Body Weight Genders Combined ([1]; 150 mg base/kg/day): 3.82 g | Mean Fetal Body Weight Males ([1]; 150 mg base/kg/day): 3.91 g | Adjusted Final Body Weight, Mean ([1]; 150 mg base/kg/day (N = 20)): 252.7^b g | Adjusted Weight Change From Day 6, Mean ([1]; 150 mg base/kg/day (N = 20)): 32.8^b | Final Body Weight, Mean ([1]; 150 mg base/kg/day (N = 20)): 317.0^b g | Gravid Uterine Weight, Mean ([1]; 150 mg base/kg/day (N = 20)): 64.3 g | Discharge, Brown, Vulva, times observed/animals ([1]; 150 mg base/kg/day, GD 6-20): 4/4 | Discharge, Red, Vulva, times observed/animals ([1]; 150 mg base/kg/day, GD 6-20): 1/1 | Ear/portion of ear missing, Ear/left, times observed/animals ([1]; 150 mg base/kg/day, GD 6-20): 15/1 | Hair sparse, Abdominal region, times observed/animals ([1]; 150 mg base/kg/day, GD 6-20): 0/0 | Hair sparse, Cervical region, times observed/animals ([1]; 150 mg base/kg/day, GD 6-20): 0/0 | Hair sparse, Forefoot/left, times observed/animals ([1]; 150 mg base/kg/day, GD 6-20): 27/3 | Hair sparse, Forefoot/right, times observed/animals ([1]; 150 mg base/kg/day, GD 6-20): 23/3 | Hair sparse, Forelimb/left, times observed/animals ([1]; 150 mg base/kg/day, GD 6-20): 14/2 | Hair sparse, Forelimb/right, times observed/animals ([1]; 150 mg base/kg/day, GD 6-20): 30/3 | Hair sparse, Hind limb/left, times observed/animals ([1]; 150 mg base/kg/day, GD 6-20): 6/1 | Hair sparse, Hind limb/right, times observed/animals ([1]; 150 mg base/kg/day, GD 6-20): 6/1 | Hair sparse, Lumbar region, times observed/animals ([1]; 150 mg base/kg/day, GD 6-20): 12/1 | Hair sparse, Thoracic region, times observed/animals ([1]; 150 mg base/kg/day, GD 6-20): 12/2 | Scabbed area, Face, times observed/animals ([1]; 150 mg base/kg/day, GD 6-20): 0/0 | Scabbed area, Forelimb/right, times observed/animals ([1]; 150 mg base/kg/day, GD 6-20): 0/0 | Scabbed area, Tail, times observed/animals ([1]; 150 mg base/kg/day, GD 6-20): 13/2 | Scabbed area, Thoracic region, times observed/animals ([1]; 150 mg base/kg/day, GD 6-20): 0/0 | Tail missing - portion, times observed/animals ([1]; 150 mg base/kg/day, GD 6-20): 11/1 | NOAEL for fetal developmental toxicity ([1]; pregnant rats): 50 mg base/kg/day | NOAEL for maternal toxicity ([1]; pregnant rats): 15 mg base/kg/day | mortality ([1]; rat, in vivo): No treatment related mortality | Tmax ([2]; human, in vivo, oral, single dose, read-out: delay of median Tmax with high-fat and high-calorie meal): 30 min | Vd ([2]; human, in vivo, single dose, geo CV % 67.7%, read-out: geometric mean volume of distribution): 184 L | increase in AUC with high-fat and high-calorie meal compared to fasted state ([2]; single dose): 2 times | increase in Cmax with high-fat and high-calorie meal compared to fasted state ([2]; single dose): 2.2 times | mean (% CV) bioavailability ([2]; single dose): 64% (17%) | radioactivity recovered in feces [2, 5]: 85% | radioactivity recovered in urine [2, 5]: less than 5% | recovered in feces as unchanged [2, 5]: 30% | binding to human serum albumin [3]: 99.9% | genotoxicity, bone marrow micronucleus assay [4]: not genotoxic
